# Experimental data from BindingDB's records for doi:10.7270/Q29C6VXX (Burnham Center For Chemical Genomics, 2011).
# Target: T1, Apoptotic protease-activating factor 1 (Homo sapiens, UniProt O14727)
# T1 sequence (O14727 whole entry): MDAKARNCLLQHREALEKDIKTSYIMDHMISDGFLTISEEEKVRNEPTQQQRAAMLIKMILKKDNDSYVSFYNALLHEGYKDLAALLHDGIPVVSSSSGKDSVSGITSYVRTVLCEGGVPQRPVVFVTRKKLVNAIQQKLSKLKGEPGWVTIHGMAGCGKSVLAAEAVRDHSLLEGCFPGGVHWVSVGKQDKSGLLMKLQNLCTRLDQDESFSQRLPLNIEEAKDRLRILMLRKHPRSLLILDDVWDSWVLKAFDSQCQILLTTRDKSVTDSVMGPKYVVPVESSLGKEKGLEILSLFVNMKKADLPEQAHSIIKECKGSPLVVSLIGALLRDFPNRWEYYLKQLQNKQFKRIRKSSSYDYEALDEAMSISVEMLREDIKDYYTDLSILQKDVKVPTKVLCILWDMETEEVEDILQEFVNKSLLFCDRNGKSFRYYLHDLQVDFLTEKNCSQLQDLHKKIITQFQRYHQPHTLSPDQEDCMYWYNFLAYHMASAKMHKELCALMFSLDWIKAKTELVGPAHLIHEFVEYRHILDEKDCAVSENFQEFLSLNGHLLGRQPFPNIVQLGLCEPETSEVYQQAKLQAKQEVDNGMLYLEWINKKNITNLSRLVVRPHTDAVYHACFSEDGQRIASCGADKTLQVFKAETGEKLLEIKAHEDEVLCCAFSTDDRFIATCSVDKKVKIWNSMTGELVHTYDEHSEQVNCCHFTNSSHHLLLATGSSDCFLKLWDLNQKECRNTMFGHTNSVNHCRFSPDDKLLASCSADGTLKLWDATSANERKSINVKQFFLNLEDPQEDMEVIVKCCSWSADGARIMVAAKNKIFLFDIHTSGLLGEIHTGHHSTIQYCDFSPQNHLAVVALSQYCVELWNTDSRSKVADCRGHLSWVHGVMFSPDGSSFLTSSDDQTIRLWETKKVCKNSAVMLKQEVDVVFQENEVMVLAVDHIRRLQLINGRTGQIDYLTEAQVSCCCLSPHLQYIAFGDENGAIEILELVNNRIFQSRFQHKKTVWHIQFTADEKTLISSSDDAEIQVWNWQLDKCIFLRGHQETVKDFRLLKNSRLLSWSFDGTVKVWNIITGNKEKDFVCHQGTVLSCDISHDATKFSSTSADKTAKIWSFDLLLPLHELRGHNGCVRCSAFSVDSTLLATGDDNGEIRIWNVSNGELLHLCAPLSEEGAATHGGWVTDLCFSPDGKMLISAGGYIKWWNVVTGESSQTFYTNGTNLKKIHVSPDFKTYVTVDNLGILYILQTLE
# Experiment: activation of Apaf-1 mediated apoptosis – fluorescent, uHTS hits, dose response (AID 588554)
row,Structure (SMILES),EC50
1,"O=C(NN=CC1C=C(Cl)C=C([N+](=O)[O-])C1=O)NC12CC3CC(CC(C3)C1)C2 (stereo not drawn) [1-(1-adamantyl)-3-[[(E)-(3-chloro-5-nitro-6-oxo-1-cyclohexa-2,4-dienylidene)methyl]amino]urea]",6.87 µM
2,CCOc1ccc(C(=O)CC=Nc2ccc(S(=O)(=O)NC(=N)N)cc2)cc1 [2-[4-[[(E)-3-(4-ethoxyphenyl)-3-oxidanylidene-prop-1-enyl]amino]phenyl]sulfonylguanidine],6.28 µM
3,CSc1ccc(CN=Nc2ccc(S(=O)(=O)Nc3ccccc3C(=O)O)cc2[N+](=O)[O-])cc1 [MLS002245633],8.23 µM
